One assay has as its target T1, recombinant human QC (Homo sapiens, UniProt Q16769).
T1 construct: His6 (N); purchased R&D Systems
Description: Assay 4 - QC potency, mass spectrometry-based enzymatic potency assay. The format is biochemical. Particulars: mass spectrometry read-out; read-out: QC Pot. Assay No. 4. The protocol: (§1) EC50's of test compounds were determined by incubating 11-point two-fold dilutions of test compound in 20 μL volumes in the presence of 7.5 nM isoQC and 10 μM H-Gln-AMC using 50 mM Tris-HCl pH 8.0 as assay buffer for 2 hours at room temperature before stopping the reaction by the addition of 2 volumes of methanol. Both the substrate and the product of this reaction were read out using an Agilent RapidFire microfluidic solid phase sample extraction system coupled to an AB Sciex API 4000 triple quadrupole mass spectrometer, in negative ion mode, at m/z of 301.9 and 284.9 respectively. The actual readout was defined as P/(S+P), where P is the product signal area and S the substrate signal area. EC50's were calculated by four parameter sigmoidal model fitting.
EC50's of test compounds were determined in the same way as described in Assay 2 above, except that N-terminally His6-tagged recombinant human QC (R&D Systems) was used instead of isoQC.

In assay [1] the target is T2, human isoQC (S53-L382) (Homo sapiens, UniProt Q9NXS2).
T2 construct: enzymatically active region of human isoQC (S53-L382; see, e.g., Huang et al., 2011); GST-Enterokinase site (N, cleaved yes); made in house; host or cells: E. coli
Put plainly: Assay 2 - isoQC potency, mass spectrometry-based enzymatic potency assay. It is filed as biochemical. Particulars: mass spectrometry read-out, 7.5 nM isoQC, 10 μM H-Gln-AMC; read-out: isoQc Pot. Assay No. 2. The protocol: (§2) The Golgi luminal, enzymatically active region of human isoQC (S53-L382; see, e.g., Huang et al., 2011) was obtained by expression in E. coli of an N-terminally GST-Enterokinase and C-terminally 6×His tagged construct in the pET41(+) vector and subsequent purification using talon beads and GST beads, enterokinase digestion and further purification with a final formulation in 25 mM Tris pH 8.0/150 mM NaCl/1 mM TCEP. Absence of pyroglutamylating activity in an enzymatic dead variant that was cloned, expressed, and purified in parallel ruled out that the purification strategy isolates any endogenously present pyroglutamylating activity.
as §1

Assay [2] concerns pyroglutamylated CD47 (pE-CD47) in KBM7 cells. Put plainly: Assay 6 - cell-based potency assay (pE-CD47 CC2C6 staining vs total CD47). Details: species or system human. Particulars: Homo sapiens, KBM-7, 72 h, CC2C6 signal, read-out: Cell Pot. Assay No. 6. The essentials:
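KBM7 cells received a 10-point 2-fold compound series for 72 h at 37 °C, then were stained with anti-CD47 clones 2D3 (total) and CC2C6 (pyroglutamylated) and analysed by flow cytometry on DAPI-negative cells. MFI was scaled between wild-type and CD47- or QPCTL-knockout cells; IC50 came from 3-parameter logistic fit of CC2C6 signal, top fixed at 1.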

For assay [3], the target named is T2, human isoQC (S53-L382). Description: Assay 1 - isoQC inhibition, fluorescent enzymatic assay (single concentration). The format is biochemical. To be noted: isoQC inhibition at 250 nM test compound; read-out: isoQc Inh. Assay No. 1. The protocol:
Initially, isoQC inhibitory activity was measured at a single concentration in a fluorescent-based assay (Assay 1 below). In order to establish the inhibitory activity more quantitatively, IC50 values were obtained using a mass spectrometry-based assay where pyroglutamylation by either isoQC or QC was measured (Assays 2 and 4, respectively, below). Alternatively, IC50 values for isoQC or QC were obtained using a fluorescence-based assay (Assays 3 and 5 respectively, below).
as §2
(§3) Pyroglutamylation was measured by conversion of glutamine-4-amino-7-methylcoumarine (H-Gln-AMC, Bachem) to pyroglutamyl-AMC, which is subsequently a specific substrate for pyroglutamylaminopeptidase (pGAPase, Qiagen), releasing free AMC which can be fluorescently detected. For a typical inhibition assay, 15 μL 20 μM h-Gln-AMC (diluted from a 40 mM stock dissolved in 25 mM HEPES using 50 mM Tris-HCl pH 8.0) was pipetted into a 96-well plate on ice. Next, 7.5 μL 1 μM test compound (diluted from a 10 mM stock dissolved in DMSO using 50 mM Tris-HCl) was added. Finally, 7.5 μL, 3 ng/μL recombinant isoQC enzyme was added and the reaction mixture was incubated for 1 hour at 37° C. A 5 minute incubation at 98° C. was then performed to denature the isoQC enzyme and stop the reaction.
To detect the amount of pyroglutamyl-AMC formed, a 96-well plate was prepared with 25 μL 0.125 U/mL pGAPase enzyme diluted in 50 mM Tris-HCl pH 8.0 containing 10 mM dithiothreitol (DTT). 25 μL of the pyroglutamylation reaction mixture was transferred into the plate containing the pGAPase solutions while on ice. Once done, the plate was moved over to a Spectramax ID3 fluorescent plate-reader to monitor and record the maximum fluorescence at 380 nm excitation/450 nm emission over a period of 20 minutes while keeping the temperature at 37° C.
DMSO concentrations during the assay never exceeded 1% and activities were compared to controls containing only the same amount of DMSO and no test compound. […] Test compounds were reported as active when <40% of background corrected signal was measured as compared to DMSO controls.

The target of assay [4] is T2, human isoQC (S53-L382). Description: Assay 3 - isoQC potency, fluorescent enzymatic assay. To be noted: fluorescent read-out; read-out: isoQc Pot. Assay No. 3. The format is biochemical. The protocol:
For this assay specifically, isoQC production was performed slightly different than described in the general methods: The Golgi luminal, enzymatically active region of human isoQC (S53-L382; see, e.g., Huang et al., 2011) was obtained by expression in E. coli of an N-terminally GST Enterokinase and C-terminally 6×His tagged construct in the pET41(+) vector and subsequent purification using Ni-NTA IMAC. Enterokinase digestion ensued, followed by another Ni-NTA IMAC purification, Superdex75 based size exclusion and finally a spin concentration using a 10 kDa molecular weight cutoff. The final protein is formulated in 50 mM Tris-HCl, 150 mM NaCl, 50% Glycerol, pH 7.8.
as §3, with “assay, 7.5 μL aliquots of threefold dilutions of test compound in 50 mM Tris pH8 buffer were plated in 384-well plates.” for “assay,”, “added to each well.” for “pipetted into a 96-well plate on ice. Next, 7.5 μL 1 μM test compound (diluted from a 10 mM stock dissolved in DMSO using 50 mM Tris-HCl) was added.”
(§4) To detect the amount of pyroglutamyl-AMC formed, a 0.125 U/mL pGAPase enzyme diluted in 50 mM Tris-HCl pH 8.0 containing 10 mM dithiothreitol (DTT) solution was prepared. 25 μL of the pyroglutamylation reaction mixture was transferred into an empty plate and to that, 25 μL of the pGAPase enzyme solution was added. Plates were then incubated for 25 minutes at room temperature before fluorescence readings were taken on an Envision2 plate reader with excitation set at 380 nm and emission at 450 nm.
DMSO concentrations during the assay never exceeded 1% and activities were compared to controls containing only the same amount of DMSO and no test compound. Controls were taken along containing pyroglutamylated-AMC (Bachem, dissolved at 10 mM in DMSO) instead of H-Gln-AMC to control for pGAPase inhibition. IC50 values are calculated using non-linear regression analysis with GraphPad Prism software.

Assay [5] addresses T3, Recombinant QC enzyme (residues 33-361 of uniprot ID Q16769) (Homo sapiens, UniProt Q16769).
T3 construct: bacterial expression of residues 33-361 of uniprot ID Q16769; His tag (cleaved yes); made in house; host or cells: bacterial expression (pET32a)
Description: Assay 5 - QC potency, fluorescent enzymatic assay. The format is biochemical. Particulars: fluorescent read-out; read-out: QC Pot. Assay No. 5.
Excerpt: Recombinant QC enzyme was produced by bacterial expression of residues 33-361 of uniprot ID Q16769, fused to a His tag, codon optimized and cloned into the pET32a plasmid backbone. After scale-up, expression and lysis, protein was purified by Ni-NTA IMAC, dialysed in the presence of Factor Xa, further purified by Ni-NTA reverse IMAC and finally filtrated for size on a Superdex 200 16/60 column. Final protein was concentrated using a spin concentrator at 10 kDa molecular weight cutoff and formulated in 150 mM NaCl, 50 mM Tris-HCl, 50% Glycerol, pH 8.0.
as §3, with “assay, 7.5 μL aliquots of threefold dilutions of test compound in 50 mM Tris pH8 buffer were plated in 384-well plates.” for “assay,”, “added to each well.” for “pipetted into a 96-well plate on ice. Next, 7.5 μL 1 μM test compound (diluted from a 10 mM stock dissolved in DMSO using 50 mM Tris-HCl) was added.”, “QC” for “isoQC”
as §4
DMSO concentrations during the assay never exceeded 1% and activities were compared to controls containing only the same amount of DMSO and no test compound. Controls were taken along containing pyroglutamylated-AMC (Bachem, dissolved at 10 mM in DMSO) instead of H-Gln-AMC to control for pGAPase inhibition.
IC50 values are calculated using non-linear regression analysis with GraphPad Prism software.

Bounds are passed on as bounds.

T2 sequence (Q9NXS2 53-382): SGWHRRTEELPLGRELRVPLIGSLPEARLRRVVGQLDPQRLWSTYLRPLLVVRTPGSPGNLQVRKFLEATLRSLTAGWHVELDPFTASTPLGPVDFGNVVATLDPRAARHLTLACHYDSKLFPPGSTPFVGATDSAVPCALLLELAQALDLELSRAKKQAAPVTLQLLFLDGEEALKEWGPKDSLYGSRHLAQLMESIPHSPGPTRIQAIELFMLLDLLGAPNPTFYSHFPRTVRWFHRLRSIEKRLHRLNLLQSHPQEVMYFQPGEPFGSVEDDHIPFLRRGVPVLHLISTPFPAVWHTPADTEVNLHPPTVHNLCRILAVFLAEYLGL
T3 sequence (Q16769 33-361): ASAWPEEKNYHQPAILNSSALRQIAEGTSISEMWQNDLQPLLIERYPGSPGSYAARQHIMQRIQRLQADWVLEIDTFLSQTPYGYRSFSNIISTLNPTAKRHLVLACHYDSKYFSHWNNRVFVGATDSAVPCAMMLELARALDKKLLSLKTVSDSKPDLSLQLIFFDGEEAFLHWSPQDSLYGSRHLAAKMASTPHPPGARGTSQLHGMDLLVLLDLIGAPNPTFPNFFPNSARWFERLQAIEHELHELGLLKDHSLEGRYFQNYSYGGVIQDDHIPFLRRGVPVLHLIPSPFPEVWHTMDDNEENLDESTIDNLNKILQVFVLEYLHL
T1 sequence (Q16769 29-361): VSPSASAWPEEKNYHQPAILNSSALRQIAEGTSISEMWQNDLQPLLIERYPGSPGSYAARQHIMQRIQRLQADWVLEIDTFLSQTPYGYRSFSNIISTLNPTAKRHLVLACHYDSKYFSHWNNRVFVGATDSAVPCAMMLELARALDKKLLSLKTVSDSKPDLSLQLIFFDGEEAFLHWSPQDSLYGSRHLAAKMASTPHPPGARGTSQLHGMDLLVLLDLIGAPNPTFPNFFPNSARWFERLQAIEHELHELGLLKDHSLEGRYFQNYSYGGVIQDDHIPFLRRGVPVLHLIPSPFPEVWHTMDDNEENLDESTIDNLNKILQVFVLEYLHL

Regarding `Cc1c2c(nn1C)C(=O)N(c1ccc3[nH]cnc3c1)C2c1ccc(N2CCC(F)(F)C2)cc1F` (stereo not shown) [FRPPO-028A], the IC50 is 25 to 100 nM at recombinant human QC, < 25 nM at human isoQC (S53-L382) [1] and < 1000 nM in assay [2]. Also, on human isoQC (S53-L382) [3], the inhibition at 0.25 µM was > 40%.
The like results for `CCCOc1ccc(C2c3c(nn(CC)c3C)C(=O)N2c2ccc3[nH]cnc3c2)cc1` (stereo not shown) [FRPPO-029] were, in that order, 100 to 5000 nM, 25 to 100 nM, < 1000 nM and > 40%.
In the same order, the values of `CCCOc1ccc(C2c3c(nn(C(C)C)c3C)C(=O)N2c2ccc3[nH]cnc3c2)cc1` (stereo not shown) [FRPPO-030] are 100 to 5000 nM, 100 to 5000 nM, 1000 to 5000 nM and > 40%.
The like results for `CCCOc1ccc(C2c3c(nn(COC)c3C)C(=O)N2c2ccc3[nH]cnc3c2)cc1` (stereo not shown) [FRPPO-031] were, in that order, 100 to 5000 nM, 25 to 100 nM, 1000 to 5000 nM and > 40%.
Take `CCCOc1ccc(C2c3c(nn(CC(F)F)c3C)C(=O)N2c2ccc3[nH]cnc3c2)cc1` (stereo not shown) [FRPPO-032]: the IC50 was in the range of 100 to 5000 nM on recombinant human QC, 100 to 5000 nM on human isoQC (S53-L382) [1] and 1000 to 5000 nM in assay [2]. In addition, the inhibition at 0.25 µM at human isoQC (S53-L382) [3] was ≤ 40%.
`CCCOc1ccc(C2c3c(nn(C4CCC4)c3C)C(=O)N2c2ccc3[nH]cnc3c2)cc1` (stereo not shown) [FRPPO-033]: the IC50 at recombinant human QC lay within 100 to 5000 nM; at human isoQC (S53-L382) [1], 100 to 5000 nM; in assay [2], 1000 to 5000 nM. Besides, the inhibition at 0.25 µM on human isoQC (S53-L382) [3] was > 40%.
Consider `CCCOc1ccc(C2c3c(nn(CC4CC4)c3C)C(=O)N2c2ccc3[nH]cnc3c2)cc1` (stereo not shown) [FRPPO-034], for which the IC50 on recombinant human QC fell in the range of 100 to 5000 nM; on human isoQC (S53-L382) [1] it was 100 to 5000 nM; in assay [2], 1000 to 5000 nM. Also, the inhibition at 0.25 µM on human isoQC (S53-L382) [3] is > 40%.
Regarding `CCCOc1ccc(C2c3c(nn(C4CCOCC4)c3C)C(=O)N2c2ccc3[nH]cnc3c2)cc1` (stereo not shown) [FRPPO-035], the values for the IC50 (on recombinant human QC; at human isoQC (S53-L382) [1]; in assay [2]) were 100 to 5000 nM, 100 to 5000 nM and 1000 to 5000 nM, respectively. Moreover, on human isoQC (S53-L382) [3], the inhibition at 0.25 µM was > 40%.
`Cc1[nH]nc2c1C(c1ccc(N3CCC(F)(F)C3)c(F)c1F)N(c1ccc3[nH]cnc3c1)C2=O` (stereo not shown) [FRPPO-161]: the IC50 was 25 to 100 nM at human isoQC (S53-L382) [4], < 1000 nM in assay [2] and 25 to 100 nM in assay [5].
As for `Cc1nn(C)c2c1C(c1ccc(-c3cnc(C(F)(F)F)s3)cc1F)N(c1ccc3[nH]cnc3c1)C2=O` (stereo not shown) [FRPPO-164], the IC50 on human isoQC (S53-L382) [4] is 100 to 5000 nM; in assay [2], < 1000 nM; in assay [5] it was 100 to 5000 nM.
`Cc1nn(C)c2c1C(c1ccc(-c3cnn(C(F)(F)F)c3)cc1F)N(c1ccc3[nH]cnc3c1)C2=O` (stereo not shown) [FRPPO-165]: the IC50 at human isoQC (S53-L382) [4] is 25 to 100 nM; in assay [2], < 1000 nM; in assay [5] it was 100 to 5000 nM.
On to `O=C1c2[nH]ncc2C(c2ccc(N3CCC(F)(F)C3)cc2F)N1c1ccc2[nH]cnc2c1` (stereo not shown) [FRPPO-171], for which the IC50 (at human isoQC (S53-L382) [4]; in assay [5]) was 100 to 5000 nM throughout.
As for `COc1n[nH]c2c1C(c1ccc(N3CCC(F)(F)C3)cc1F)N(c1ccc3[nH]cnc3c1)C2=O` (stereo not shown) [FRPPO-173], the IC50 (at human isoQC (S53-L382) [4]; in assay [5]) was 25 to 100 nM each time.
As to `Cc1noc2c1C(c1ccc(-c3cnn(C(F)(F)F)c3)cc1F)N(c1ccc3[nH]cnc3c1)C2=O` (stereo not shown) [FRPPO-176], the IC50 on human isoQC (S53-L382) [4] was in the range of 25 to 100 nM; in assay [5], 100 to 5000 nM.
The like results for `Cc1onc2c1C(c1ccc(-c3cnn(C(F)(F)F)c3)cc1F)N(c1ccc3[nH]cnc3c1)C2=O` (stereo not shown) [FRPPO-177] were, in that order, < 25 nM and 25 to 100 nM.

(Values after patent publication US20230077723A1, “N-SUBSTITUTED-3,4-(FUSED 5-RING)-5-PHENYL-PYRROLIDINE-2-ONE COMPOUNDS AS INHIBITORS OF ISOQC AND/OR QC ENZYME” (Scenic Immunology B.V., priority 2019, published 2023).)
